# Source: PMC10175918 (Communications Biology, 2023)
# Read-outs that look alike come from different tables or passages of the source.
# Columns and labels:
# Experiment in all cases: TGFα-shedding assay-based GPCR screening with chimeric Gα subunit proteins
# Type in all cases: cell-based
# 348 GPCRs [1] = biological target: T1, 348 GPCRs (Homo sapiens, UniProt P30518)
# T1 construct: expressed in transfected cells; host or cells: HEK293A
# 348 GPCRs [2] = biological target: T2, 348 GPCRs (Homo sapiens, UniProt P41180); details: 10µM, Favipiravir 100μM
# T2 construct: expressed in transfected cells; host or cells: HEK293A
# T2 sequence (P41180 20-1078): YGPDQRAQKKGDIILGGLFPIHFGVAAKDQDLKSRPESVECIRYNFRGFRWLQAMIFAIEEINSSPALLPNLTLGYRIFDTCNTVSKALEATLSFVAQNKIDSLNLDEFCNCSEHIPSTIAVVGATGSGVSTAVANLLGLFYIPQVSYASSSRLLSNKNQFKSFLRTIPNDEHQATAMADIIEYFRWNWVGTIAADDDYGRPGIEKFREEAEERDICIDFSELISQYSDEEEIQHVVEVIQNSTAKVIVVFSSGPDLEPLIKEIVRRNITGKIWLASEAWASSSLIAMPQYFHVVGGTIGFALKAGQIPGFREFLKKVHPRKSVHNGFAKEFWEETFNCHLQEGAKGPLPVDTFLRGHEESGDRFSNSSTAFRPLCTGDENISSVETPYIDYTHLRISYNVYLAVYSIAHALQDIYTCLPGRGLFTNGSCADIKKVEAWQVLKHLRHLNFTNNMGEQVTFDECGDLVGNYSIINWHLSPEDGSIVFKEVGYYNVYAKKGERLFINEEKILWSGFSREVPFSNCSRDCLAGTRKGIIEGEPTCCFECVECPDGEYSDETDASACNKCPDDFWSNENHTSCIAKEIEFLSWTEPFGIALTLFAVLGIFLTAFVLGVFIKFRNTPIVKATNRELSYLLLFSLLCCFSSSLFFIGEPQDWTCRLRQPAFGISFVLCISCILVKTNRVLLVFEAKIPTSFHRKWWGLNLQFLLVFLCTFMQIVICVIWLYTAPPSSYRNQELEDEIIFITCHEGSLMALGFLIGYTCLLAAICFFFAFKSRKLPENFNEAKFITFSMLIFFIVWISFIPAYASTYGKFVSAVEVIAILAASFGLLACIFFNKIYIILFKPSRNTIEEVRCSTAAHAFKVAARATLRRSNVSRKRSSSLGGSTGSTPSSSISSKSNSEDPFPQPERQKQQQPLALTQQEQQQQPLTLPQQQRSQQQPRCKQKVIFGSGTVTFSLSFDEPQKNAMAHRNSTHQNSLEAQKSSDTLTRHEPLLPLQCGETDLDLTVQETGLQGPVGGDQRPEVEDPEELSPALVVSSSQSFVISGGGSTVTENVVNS
# 348 GPCRs [3] = biological target: T3, 348 GPCRs (Homo sapiens, UniProt P46663); details: 10µM, Favipiravir 100μM
# T3 construct: expressed in transfected cells; host or cells: HEK293A
# T3 sequence (P46663 1-353): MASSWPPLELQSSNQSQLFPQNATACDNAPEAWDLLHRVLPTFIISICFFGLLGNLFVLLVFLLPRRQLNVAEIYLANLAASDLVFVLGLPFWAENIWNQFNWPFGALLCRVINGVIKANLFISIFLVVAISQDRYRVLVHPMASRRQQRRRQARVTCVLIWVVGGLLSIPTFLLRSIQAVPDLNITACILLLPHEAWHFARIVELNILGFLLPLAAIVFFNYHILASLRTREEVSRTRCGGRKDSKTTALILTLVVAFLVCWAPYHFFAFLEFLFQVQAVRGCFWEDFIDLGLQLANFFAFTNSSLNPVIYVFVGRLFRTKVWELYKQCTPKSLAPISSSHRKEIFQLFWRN
# 348 GPCRs [4] = biological target: T4, 348 GPCRs (Homo sapiens, UniProt P47871); details: 10µM, Favipiravir 100μM
# T4 construct: expressed in transfected cells; host or cells: HEK293A
# 348 GPCRs [5] = biological target: T5, 348 GPCRs (Homo sapiens, UniProt Q13324)
# T5 construct: expressed in transfected cells; host or cells: HEK293A
# T5 sequence (Q13324 1-411): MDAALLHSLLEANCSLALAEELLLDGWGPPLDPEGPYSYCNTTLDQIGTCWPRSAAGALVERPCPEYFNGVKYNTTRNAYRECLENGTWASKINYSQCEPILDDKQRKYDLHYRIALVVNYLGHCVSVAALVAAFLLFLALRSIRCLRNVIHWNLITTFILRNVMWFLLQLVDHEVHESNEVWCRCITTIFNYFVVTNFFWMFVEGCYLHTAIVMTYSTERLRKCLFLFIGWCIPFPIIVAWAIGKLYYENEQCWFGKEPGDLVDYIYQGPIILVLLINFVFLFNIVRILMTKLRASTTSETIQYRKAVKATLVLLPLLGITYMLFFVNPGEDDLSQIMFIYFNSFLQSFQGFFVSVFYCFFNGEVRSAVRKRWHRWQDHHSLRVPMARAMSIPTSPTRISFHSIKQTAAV
# 348 GPCRs [6] = biological target: T6, 348 GPCRs (Homo sapiens, UniProt Q96G91)
# T6 construct: expressed in transfected cells; host or cells: HEK293A
# T6 sequence (Q96G91 1-374): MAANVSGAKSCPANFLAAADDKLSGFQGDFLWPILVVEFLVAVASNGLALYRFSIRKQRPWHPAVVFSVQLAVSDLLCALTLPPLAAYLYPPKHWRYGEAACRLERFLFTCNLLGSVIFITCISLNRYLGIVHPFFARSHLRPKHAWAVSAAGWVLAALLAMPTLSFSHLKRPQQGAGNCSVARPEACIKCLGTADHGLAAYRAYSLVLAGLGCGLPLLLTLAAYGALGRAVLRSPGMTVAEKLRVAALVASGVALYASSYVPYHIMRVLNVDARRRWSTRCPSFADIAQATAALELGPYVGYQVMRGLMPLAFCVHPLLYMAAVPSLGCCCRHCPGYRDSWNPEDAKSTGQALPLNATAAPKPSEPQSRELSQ
# [7] = read-out: % GPCR activation compared to TPA, GPCR V2 (arginine vasopressin receptor 2)
# [8] = read-out: % GPCR activation compared to TPA, CASR (calcium sensing receptor)
# [9] = read-out: % GPCR activation compared to TPA, B1 (bradykinin receptor B1)
# [10] = read-out: % GPCR activation compared to TPA, GCGR (glucagon receptor)
# [11] = read-out: % GPCR activation compared to TPA, GPCR CRHR2 (corticotropin releasing hormone receptor 2)
# [12] = read-out: % GPCR activation compared to TPA, GPCR P2Y11 (purinergic receptor P2Y, G-protein coupled, 11)
# [13] = GPCR V2 (arginine vasopressin receptor 2), read-out: % GPCR activation compared to TPA
# [14] = CASR (calcium sensing receptor), read-out: % GPCR activation compared to TPA
# [15] = B1 (bradykinin receptor B1), read-out: % GPCR activation compared to TPA
# [16] = GCGR (glucagon receptor), read-out: % GPCR activation compared to TPA
# [17] = GPCR CRHR2 (corticotropin releasing hormone receptor 2), read-out: % GPCR activation compared to TPA
# [18] = GPCR P2Y11 (purinergic receptor P2Y, G-protein coupled, 11), read-out: % GPCR activation compared to TPA
# T1 sequence (P30518 whole entry): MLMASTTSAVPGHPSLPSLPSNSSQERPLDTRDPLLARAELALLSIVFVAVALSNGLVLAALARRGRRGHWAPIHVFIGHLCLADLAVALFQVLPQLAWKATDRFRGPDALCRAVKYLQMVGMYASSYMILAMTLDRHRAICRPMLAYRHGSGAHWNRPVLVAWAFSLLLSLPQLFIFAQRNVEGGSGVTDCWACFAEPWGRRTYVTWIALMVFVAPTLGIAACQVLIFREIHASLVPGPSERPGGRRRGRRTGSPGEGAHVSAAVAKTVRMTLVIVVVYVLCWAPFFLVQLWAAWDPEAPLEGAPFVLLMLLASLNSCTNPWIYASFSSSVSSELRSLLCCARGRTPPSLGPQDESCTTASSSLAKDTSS
# T4 sequence (P47871 26-477): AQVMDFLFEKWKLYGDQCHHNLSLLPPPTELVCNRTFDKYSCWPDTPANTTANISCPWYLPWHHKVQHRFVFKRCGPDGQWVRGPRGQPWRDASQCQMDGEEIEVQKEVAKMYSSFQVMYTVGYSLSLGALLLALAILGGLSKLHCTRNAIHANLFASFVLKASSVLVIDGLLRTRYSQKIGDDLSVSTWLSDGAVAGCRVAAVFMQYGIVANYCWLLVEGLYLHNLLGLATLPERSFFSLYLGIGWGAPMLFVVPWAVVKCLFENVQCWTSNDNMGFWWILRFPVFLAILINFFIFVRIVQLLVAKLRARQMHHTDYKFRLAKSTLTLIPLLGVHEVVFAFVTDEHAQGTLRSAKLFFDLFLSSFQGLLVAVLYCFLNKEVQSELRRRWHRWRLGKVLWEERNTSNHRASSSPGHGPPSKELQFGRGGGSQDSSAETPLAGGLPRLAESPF
SMILES,activation at 10 µM (348 GPCRs [1]; [13]) [%],activation at 100 µM (348 GPCRs [2]; [14]) [%],activation at 10 µM (348 GPCRs [3]; [15]) [%],activation at 100 µM (348 GPCRs [4]; [16]) [%],activation at 10 µM (348 GPCRs [5]; [17]) [%],activation at 10 µM (348 GPCRs [6]; [18]) [%],"activation at 100 µM (348 GPCRs [1]; GPCR V2 (arginine vasopressin receptor 2), 100μM, read-out: % GPCR activation compared to TPA) [%]","activation at 100 µM (348 GPCRs [5]; GPCR CRHR2 (corticotropin releasing hormone receptor 2), 100μM, read-out: % GPCR activation compared to TPA) [%]","activation at 100 µM (348 GPCRs [6]; GPCR P2Y11 (purinergic receptor P2Y, G-protein coupled, 11), 100μM, read-out: % GPCR activation compared to TPA) [%]",activation at 10 µM (348 GPCRs [1]; [7]) [%],activation at 100 µM (348 GPCRs [2]; [8]) [%],activation at 10 µM (348 GPCRs [3]; [9]) [%],activation at 100 µM (348 GPCRs [4]; [10]) [%],activation at 10 µM (348 GPCRs [5]; [11]) [%],activation at 10 µM (348 GPCRs [6]; [12]) [%]
CC(C)OC(=O)[C@H](C)N[P@](=O)(OC[C@H]1O[C@@H](n2ccc(=O)[nH]c2=O)[C@](C)(F)[C@@H]1O)Oc1ccccc1 [sofosbuvir],–,–,–,–,–,–,–,–,–,-0.417,-3.31,-5,-0.806,2.1,-20.5
"NC(=O)c1nc(F)cnc1O [favipiravir, 6-fluoro-3-hydroxy-2-pyrazinecarboxamide]",–,0.748,5.17,2.23,–,–,1.41,-0.529,-11.1,–,–,–,–,–,–
CCC(CC)COC(=O)[C@H](C)N[P@](=O)(OC[C@H]1O[C@@](C#N)(c2ccc3c(N)ncnn23)[C@H](O)[C@@H]1O)Oc1ccccc1 [remdesivir],–,–,–,–,–,–,–,–,–,1.36,4.48,8.43,2.91,1.58,-12.5

# Second part, led by results:
activation at 10 µM (348 GPCRs [1]; [13]) [%],activation at 100 µM (348 GPCRs [2]; [14]) [%],activation at 10 µM (348 GPCRs [3]; [15]) [%],activation at 100 µM (348 GPCRs [4]; [16]) [%],activation at 10 µM (348 GPCRs [5]; [17]) [%],activation at 10 µM (348 GPCRs [6]; [18]) [%],"activation at 100 µM (348 GPCRs [1]; GPCR V2 (arginine vasopressin receptor 2), 100μM, read-out: % GPCR activation compared to TPA) [%]","activation at 100 µM (348 GPCRs [5]; GPCR CRHR2 (corticotropin releasing hormone receptor 2), 100μM, read-out: % GPCR activation compared to TPA) [%]","activation at 100 µM (348 GPCRs [6]; GPCR P2Y11 (purinergic receptor P2Y, G-protein coupled, 11), 100μM, read-out: % GPCR activation compared to TPA) [%]",SMILES,activation at 10 µM (348 GPCRs [1]; [7]) [%],activation at 100 µM (348 GPCRs [2]; [8]) [%],activation at 10 µM (348 GPCRs [3]; [9]) [%],activation at 100 µM (348 GPCRs [4]; [10]) [%],activation at 10 µM (348 GPCRs [5]; [11]) [%],activation at 10 µM (348 GPCRs [6]; [12]) [%]
-0.988,-0.137,-3.36,0.495,-0.005,-21.8,–,–,–,CC(C)C(=O)OC[C@H]1O[C@@H](n2ccc(NO)nc2=O)[C@H](O)[C@@H]1O [molnupiravir],–,–,–,–,–,–
-0.765,1.55,1.31,0.277,0.656,-16.3,–,–,–,N#C[C@@]1(c2ccc3c(N)ncnn23)O[C@H](CO)[C@@H](O)[C@H]1O [GS441524],–,–,–,–,–,–
